Key:
[1] = Evaluation of stability (absorbance increase of measurement solution over 6 hours); conditions: FIG. 3; absorbance increase per hour over 6 hours
Experimental: To 0.02 mmol of each compound, 75 μL of RO water and 100 μL of a 0.5 M MOPS solution (pH 7.2) were added, and the compound was dissolved therein. The solution was used as a sample.
To 175 μL of this sample, 10 μL of the GDH solution, 5 μL of the m-PMS solution, and 10 μL of the nickel solution, all of which had been produced in the same manner as in the above section (Evaluation of sensitivity), were added, and thereby a measurement solution was produced.
As a control, 85 μL of RO water and 100 μL of a 0.5 M MOPS solution (pH 7.2) were added to 11.6 mg of 2-benzothiazolyl-3-(4-carboxy-2-methoxyphenyl)-5-[4-(2-sulfoethylcarbamoyl)phenyl]-2H-tetrazolium (WST-4), and the compound was dissolved. Thus, a control sample was produced. […] Thus, a control reaction solution was produced.
At the time of production of the measurement solution (0 hour), and after 1 hour, 2 hours, and 6 hours from the production, the spectra of the measurement solutions produced as described above were measured using a spectrophotometer (measurement cell length: 50 μm) (n=1). For each spectrum, the absorbance at the maximum absorption wavelength (λmax) of each compound as determined above was measured. The absorbances measured at the time of production of the measurement solution (0 hour) and after 6 hours from the production were designated as Abs0 h and Abs6 h, respectively. […]

[2] = Maximum absorption wavelength (λmax) of formazan-nickel chelate by spectrophotometer; type: physicochemical; conditions: chelate of formazan and nickel ion, aqueous MOPS, cell length 10 mm, n=1
Experimental: 10 mM aqueous solution of MOPS was added to each of the formazan compounds so as to obtain a final concentration of […], and thereby 100 μL of a sample was produced. At this time, all of the samples were red-brown in color. Apart from this, a 1 M aqueous solution of nickel ion was produced.
For mixed solutions of various compounds in an aqueous solution of formazan and an aqueous solution of nickel, the spectra were measured with a spectrophotometer (measurement cell length: 10 mm) (n=1). Based on each of the spectra, the maximum absorption wavelength (λmax) (nm) of each of the compounds in formazan was determined. From FIG. 1, it is understood that the maximum absorption wavelength (λmax) of the chelate compound of formazan compound 1 and nickel ion is 630 nm.
The absorbance at the maximum absorption wavelength is denoted as 100%.

[3] = Evaluation of water-solubility (visual check for precipitate); type: physicochemical; conditions: RO water / 0.5 M MOPS solution (1:1), aqueous buffer, thermodynamic from solid; RO water and 0.5 M MOPS pH 7.2; 200, 100, 20 mM; stirred 5 minutes
Experimental: After the mixture was stirred for 5 minutes, a precipitate was checked by visual inspection. […] After the mixture was stirred for 5 minutes, a precipitate was checked by visual inspection. […] After the mixture was stirred for 5 minutes, a precipitate was checked by visual inspection.

[4] = Evaluation Example 1: evaluation as blood glucose meter sensor
Experimental: Separately, 100 μL of RO water was added to 7 mg of a glucose dehydrogenase (GDH-FAD) (manufactured by TOYOBO CO., LTD., product No.: GLD-351) to dissolve the enzyme, and thus a GDH solution was produced. Furthermore, 200 μL of RO water was added to 3.5 mg of 1-methoxy-5-methylphenazium methyl sulfate (m-PMS) (manufactured by DOJINDO LABORATORIES) to dissolve the compound, and thus an s-PMS solution was produced. 1 mL of RO water was added to 129 mg of nickel chloride to dissolve the salt, and thus a nickel solution was produced.
The coating liquid obtained as described above was applied on a PET film, and a reagent ribbon 1 was produced. The area of coating was 1.5 mm×75 mm (total coating amount 5.6 μL). This reagent ribbon 1 was cut in the longitudinal direction, and a reagent piece 2 was obtained (1.5 mm×3 mm).
Along the two edges of a PET film 5 that would become one surface of a blood glucose meter sensor, a double-sided tape having a thickness of […] was provided as a spacer. […]
A whole blood sample (Ht40, 100 mg/dL) (hematocrit value 40%, glucose concentration 100 mg/dL) was spotted at the flow channel inlet port of the blood glucose meter sensor thus produced. The whole blood sample (Ht40, 100 mg/dL) was produced as follows: whole blood was collected into a heparin-containing blood sampling tube, the hematocrit value of this whole blood was measured, and the hematocrit value of the whole blood sample was regulated to be Ht40 by adding the blood plasma obtained by separation in advance, or by removing the blood plasma of the whole blood sample, as appropriate. […] The specimen was spotted on the reagent part, and then after 9 seconds, the spectrum was measured using a fiber spectrophotometer. The absorbance at the maximum absorption wavelength was measured using the spectrum measured with each of the blood glucose meter sensors that used various compounds. The absorbance obtainable in the case of measuring the whole blood sample (Ht40, 100 mg/dL) was designated as AbsBG100. […]

[(Abs6 h−Abs0 h)/6] value [1]: about 0.008
Maximum absorption wavelength (λmax) [2]: 630 nm
solubility at 5 min [3]: > 200 mM
Compound: COc1ccc2nc(-n3nc(-c4ccc(S(=O)(=O)O)cc4S(=O)(=O)[O-])n[n+]3-c3ccc(OC)c(S(=O)(=O)O)c3)sc2c1 [Example 1]
time to completion of color development ([4]; whole blood and aqueous glucose solution, absorbance at 630 nm, FIG. 7): 5 s
absorbance ([4]; whole blood and aqueous glucose solutions, 9 seconds from initiation of reaction, FIG. 6): higher than 0.2
color development (ΔAbs=AbsBG100−AbsBG0) relative to WST-4 (650 nm) ([4]; whole blood sample Ht40, 100 mg/dL, 9 seconds, FIG. 5): about 3 times
